From patent US10995068B2, “Synthetic sphingolipid-like molecules, drugs, methods of their synthesis and methods of treatment” (The Regents of the University of California, priority 2015, dated 2021)

Experiments:
[1] = Mass spectrometry quantification of SH-BC-893 in plasma and tumor; assay type: in vivo; details: SW620 xenograft mice, UPLC-MS/MS
Method: In many embodiments, exemplary experimentation was carried out to determine whether azacyclic constrained sphingolipid-lipid molecules inhibited neoplastic growth in vivo. To carry out this experimentation, luciferase-expressing SW620 xenografts were generated in mice.
Mass spectrometry quantification of SH-BC-893. As an internal standard, 75 ng FTY720 was added to 50 μl plasma or 50 μl of tumor homogenate (0.25 M sucrose, 25 mM KCl, 50 mM Tris HCl, 0.5 mM EDTA, pH 7.4; 1:9 wt:volume) combined 1:1 with acetonitrile. Proteins were precipitated and removed by centrifugation (10 min at 15,000 rpm) and the supernatant transferred to a fresh tube on ice containing 50 μl of acetonitrile+0.2% acetic acid. After a second de-proteination with acetonitrile+0.2% acetic acid, 20 μl of de-proteinated samples were analyzed by UPLC-MS/MS using a Waters Micromass Quattro Premier XE equipped with a C18 reversed phase column (Waters) with an acetonitrile+0.2% acetic acid gradient elution. The instrument was operated in positive ion mode. Ion transition channels for multiple reaction monitoring were 290→104 for SH-BC-893 with a dwell time of 200 msec. The cone voltage was 30V. Standard curves used for quantitation were linear from 50-1000 ng/ml with an R^2 of 0.98 or greater. Recovery of internal standard was >80%. Tumor concentrations were calculated assuming that 1 gm=1 mL.

[2] = test system: non-transformed and cancer cells; test: Cytosolic vacuolation by SH-BC-893; assay type: cell-based; details: both non-transformed and cancer cells
From the text: Certain embodiments of the invention are directed to azacyclic constrained sphingolipid-like molecules to inhibit macropinocytosis and autophagy, consistent with the bioenergetic mechanism. This aspect of the mechanism was unexpected because it was initially believed in that these molecules would only reduce nutrient transporter surface expression. However, considering that Ras activation increases macropinocytosis and autophagy, and the finding that SH-BC-893 was very effective against neoplastic cells with activated Ras led to the hypothesis that azacyclic constrained sphingolipid-like molecules might also affect macropinocytosis and autophagy pathways. […]
(§1) Light Microscopy: Brightfield and epifluorescence microscopy were conducted using a Nikon TE2000-S fluorescence microscope; confocal microscopy was performed on a Zeiss LSM780 confocal microscope or Nikon Eclipse Ti spinning disk confocal microscope. […] Co-localization was determined using JACoP plugin in ImageJ software. Macropinocytosis was measured after 16 h incubation in serum-free DMEM. p53−/−; LSL-K-RasG12D MEFs before (LSL) or after (KRasG12D) introduction of Cre were serum starved for 16 h and then treated with macropinocytosis inhibitor 5-(N-ethyl-N-isopropyl) amiloride (EIPA, 75 μM) for 1 h or SH-BC-893 for 6 h. […]

4F2hc, ASCT2, GLUT1 = test: Nutrient transporter internalization; assay type: cell-based; details: CD147 not affected
From the text: As a proof of principle concerning the ability of C-aryl azacyclic constrained sphingolipid-like compounds, compound SH-BC-893 was examined thoroughly in a series of exemplary embodiment experiments. (The chemical structure of SH-BC-893, also referred to in the in this application as compound 5 and compound 104, and of FTY720 are shown in FIG. 51A). Results are provided below, along with a number of correlated data tables and graphs (Tables 7 and 8 and FIGS. 51-67). In embodiments, SH-BC-893 induces nutrient transporter loss and mimics starvation without the S1P receptor associated toxicity of FTY720. SH-BC-893 lacks the sphingosine-1-phosphate (S1P) receptor activity that prevents the use of FTY720 in cancer patients (FIG. 51B). […]
as §1

## CCCCCCCCc1ccc([C@H]2CCN[C@@H]2CO)cc1.Cl [Compound 5, (2S,3R)-2-(hydroxymethyl)-3-(4-octylphenyl)Pyrrolidinium chloride]
[1]
  concentration in plasma at sacrifice: low micromolar concentrations
  concentration in tumors at sacrifice: low micromolar concentrations
[2]
  cytosolic vacuolation: induced equally striking cytosolic vacuolation
4F2hc, ASCT2, GLUT1
  internalization of amino acid and glucose transporters (4F2hc, ASCT2, GLUT1): triggers the selective internalization
